Measured values taken from article PMC11365967 (Nature Communications, 2024).

Target: T1, CCR6 (Homo sapiens, UniProt P51684)
T1 sequence (P51684 1-374): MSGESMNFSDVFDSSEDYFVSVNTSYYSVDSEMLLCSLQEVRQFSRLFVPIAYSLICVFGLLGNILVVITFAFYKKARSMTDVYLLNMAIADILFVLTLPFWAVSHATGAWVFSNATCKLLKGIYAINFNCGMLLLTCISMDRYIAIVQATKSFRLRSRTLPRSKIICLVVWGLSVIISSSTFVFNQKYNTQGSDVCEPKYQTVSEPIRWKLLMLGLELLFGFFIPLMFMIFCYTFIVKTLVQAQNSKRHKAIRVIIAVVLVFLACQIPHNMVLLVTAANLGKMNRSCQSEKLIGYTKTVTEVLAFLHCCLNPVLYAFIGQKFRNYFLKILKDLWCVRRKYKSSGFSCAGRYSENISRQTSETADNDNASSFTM
Experiment: CCL20-mediated CCR6+ human T cell chemotaxis assay
Assay type: cell-based

activity on CCR6	pEC50, CCL20-induced CCR6+ human T cell chemotaxis (mean ± s.d., n = 5)	EC50 (read-out: EC50, CCL20-induced CCR6+ human T cell chemotaxis, n = 5)	Molecule
neither OXM3 nor OXM4 are active			CC(C)(C(=O)NCC1CN(C2Cc3ccccc3C2)C(=O)CO1)c1ccc(Cl)cc1 (stereo not shown) [OXM3]
neither OXM3 nor OXM4 are active			O=C1COC(CNC(=O)C2(c3ccccc3)CC2)CN1C1Cc2ccccc2C1 (stereo not shown) [OXM4]
	9.7 ± 0.9	0.19 nM	CCL20: cognate chemokine ligand (agonist) of CCR6 (Peprotech)
